# Reference: patent US20150017667A1, “MEANS AND METHODS FOR ASSESSING LIVER DISORDERS” (BASF SE, priority 2012, published 2015)
# Marks after values point to notes of the source that are not given here.
# Test system: female rats
# Assay: 28-day repeated dose oral toxicity study (OECD 407) with GC-MS/LC-MS plasma metabolite profiling, female rats
smiles,measurement,setting,value
"CNC(=O)/C(=N/OC)c1ccccc1COc1cc(C)ccc1C [Dimoxystrobin, (E)-2-(methoxyimino)-N-methyl-2-[alpha-(2,5-xylyloxy)-o-tolyl]acetamide]","3-O-Methylsphingosine (d18:1), ratio versus control",day 7,2.18*
same,"5-O-Methylsphingosine (d18:1), ratio versus control",day 7,1.94*
same,"14-Methylhexadecanoic acid, ratio versus control",day 7,1.27
same,"Behenic acid (C22:0), ratio versus control",day 7,2.03*
same,"Cholesterol, ratio versus control",day 7,1.66*
same,"Coenzyme Q9, ratio versus control",day 7,1.51*
same,"DAG (C18:1,C18:2), ratio versus control",day 7,2.28*
same,"Eicosanoic acid (C20:0), ratio versus control",day 7,2.23*
same,"Glucose, ratio versus control",day 7,1.14
same,"Glycerol phosphate, lipid fraction, ratio versus control",day 7,1.68*
same,"Glycerol, lipid fraction, ratio versus control",day 7,2.08*
same,"Glycerol-3-phosphate, polar fraction, ratio versus control",day 7,1.38
same,"Heptadecanoic acid (C17:0), ratio versus control",day 7,1.81*
same,"Linoleic acid (C18:cis[9,12]2), ratio versus control",day 7,2.12*
same,"Nervonic acid (C24:cis[15]1), ratio versus control",day 7,1.83*
same,"Palmitic acid (C16:0), ratio versus control",day 7,1.99*
same,"Phosphatidylcholine (C16:0,C20:5), ratio versus control",day 7,1.33*
same,"TAG (C16:0,C18:1,C18:3), ratio versus control",day 7,4.17*
same,"TAG (C16:0,C18:2), ratio versus control",day 7,3.49*
same,"TAG (C18:1,C18:2), ratio versus control",day 7,4.18*
same,"TAG (C18:2,C18:2), ratio versus control",day 7,3.69*
same,"TAG (C18:2,C18:3), ratio versus control",day 7,3.61*
same,"TAG No 01, ratio versus control",day 7,2.62*
same,"TAG No 05, ratio versus control",day 7,2.89*
same,"TAG No 07, ratio versus control",day 7,2.5*
same,"dihomo-gamma-Linolenic acid (C20:cis[8,11,14]3), ratio versus control",day 7,2.95*
same,"erythro-Sphingosine, ratio versus control",day 7,1.86*
same,"3-O-Methylsphingosine (d18:1), ratio versus control",day 14,1.78*
same,"5-O-Methylsphingosine (d18:1), ratio versus control",day 14,1.94*
same,"14-Methylhexadecanoic acid, ratio versus control",day 14,1.15
same,"Behenic acid (C22:0), ratio versus control",day 14,2.23*
same,"Cholesterol, ratio versus control",day 14,1.7*
same,"Coenzyme Q9, ratio versus control",day 14,1.91
same,"DAG (C18:1,C18:2), ratio versus control",day 14,2.99*
same,"Eicosanoic acid (C20:0), ratio versus control",day 14,2.54*
same,"Glucose, ratio versus control",day 14,1.17
same,"Glycerol phosphate, lipid fraction, ratio versus control",day 14,1.69*
same,"Glycerol, lipid fraction, ratio versus control",day 14,2.44*
same,"Glycerol-3-phosphate, polar fraction, ratio versus control",day 14,1.32*
same,"Heptadecanoic acid (C17:0), ratio versus control",day 14,1.73*
same,"Linoleic acid (C18:cis[9,12]2), ratio versus control",day 14,2.2*
same,"Nervonic acid (C24:cis[15]1), ratio versus control",day 14,1.54*
same,"Palmitic acid (C16:0), ratio versus control",day 14,1.89*
same,"Phosphatidylcholine (C16:0,C20:5), ratio versus control",day 14,1.54*
same,"TAG (C16:0,C18:1,C18:3), ratio versus control",day 14,5.45*
same,"TAG (C16:0,C18:2), ratio versus control",day 14,4.36*
same,"TAG (C18:1,C18:2), ratio versus control",day 14,3.37*
same,"TAG (C18:2,C18:2), ratio versus control",day 14,3.82*
same,"TAG (C18:2,C18:3), ratio versus control",day 14,2.41*
same,"TAG No 01, ratio versus control",day 14,1.93*
same,"TAG No 05, ratio versus control",day 14,3.02*
same,"TAG No 07, ratio versus control",day 14,3.54*
same,"dihomo-gamma-Linolenic acid (C20:cis[8,11,14]3), ratio versus control",day 14,2.58*
same,"erythro-Sphingosine, ratio versus control",day 14,1.78*
same,"3-O-Methylsphingosine (d18:1), ratio versus control",day 28,1.52*
same,"5-O-Methylsphingosine (d18:1), ratio versus control",day 28,1.59*
same,"14-Methylhexadecanoic acid, ratio versus control",day 28,1.31*
same,"Behenic acid (C22:0), ratio versus control",day 28,2.03*
same,"Cholesterol, ratio versus control",day 28,1.75*
same,"Coenzyme Q9, ratio versus control",day 28,1.78*
same,"DAG (C18:1,C18:2), ratio versus control",day 28,2.85*
same,"Eicosanoic acid (C20:0), ratio versus control",day 28,2.08*
same,"Glucose, ratio versus control",day 28,1.15
same,"Glycerol phosphate, lipid fraction, ratio versus control",day 28,1.98*
same,"Glycerol, lipid fraction, ratio versus control",day 28,2.58*
same,"Glycerol-3-phosphate, polar fraction, ratio versus control",day 28,1.79
same,"Heptadecanoic acid (C17:0), ratio versus control",day 28,2.84*
same,"Linoleic acid (C18:cis[9,12]2), ratio versus control",day 28,2.2*
same,"Nervonic acid (C24:cis[15]1), ratio versus control",day 28,1.38*
same,"Palmitic acid (C16:0), ratio versus control",day 28,2.03*
same,"Phosphatidylcholine (C16:0,C20:5), ratio versus control",day 28,1.15*
same,"TAG (C16:0,C18:1,C18:3), ratio versus control",day 28,3.93*
same,"TAG (C16:0,C18:2), ratio versus control",day 28,3.68*
same,"TAG (C18:1,C18:2), ratio versus control",day 28,4.49*
same,"TAG (C18:2,C18:2), ratio versus control",day 28,5.11*
same,"TAG (C18:2,C18:3), ratio versus control",day 28,3.9*
same,"TAG No 01, ratio versus control",day 28,2.61*
same,"TAG No 05, ratio versus control",day 28,4.39*
same,"TAG No 07, ratio versus control",day 28,4.13*
same,"dihomo-gamma-Linolenic acid (C20:cis[8,11,14]3), ratio versus control",day 28,3.54*
same,"erythro-Sphingosine, ratio versus control",day 28,1.46*
